Where two headings read alike, the source gives them in different places.
Experiment: Serum concentration and pharmacokinetics of SCI after oral gavage in Wistar rats
Format: in vivo, Wistar rat
Conditions: for AUC(0-t) / Cmax / Tmax / k el / MRT / half-life: male, Wistar, rat, po, 10 mg/kg; for k el: read-out: K (elimination rate constant) (converted); for MRT: read-out: MRT (mean residence time); for half-life: read-out: T0.5e (elimination half-life) (converted)
Protocol: All procedures were performed according to the Local Ethical Committee of Experiments on Animals guidelines in Olsztyn, Poland. The experiment was conducted in the same way as described by Antonowski et al.. Briefly, the experiment was performed on male Wistar rats (n = 6). Rats were maintained in ventilated rooms under a standard day photoperiod (12:12 h light–dark) as well as with lights on from 700 to 1900 h at 21 °C. All rats had free access to food and water. At 42 days of age, rats were randomized into experimental groups (Table 1 and Table 4).
Before the administration of cyclitol (10 mg/kg), the rats were fasting for 12 h (Table 1). […] Access to water was unlimited during the experiments. The study group (n = 6) was divided into two subgroups (n = 3 rats per subgroup). This practice allows for the use of only 6 rats for the entire experiment in accordance with the 3 Rs principle. Rats received the compound at a dose of 10 mg/kg body weight. Rats were weighed before starting the compound administration. Cyclitol was administered to the rats from the study group using a stainless-steel gastric tube with a ball tip (manufacturer—Agnthos, curved gastric tube, 16G, 3 mm tip, 75 mm). Cyclitol was dissolved in distilled water to a maximum volume of 1 mL. The prepared solution was administered to the animal.
Blood samples were collected into Eppendorf tubes and were centrifuged at 2500× g for 10 min at 8 °C the following day. Blood was harvested from the tail at a specific time. […] Serum was stored at −80 °C for subsequent analyses.
The analysis is described in detail by Antonowski and co-workers. Briefly, the first step was to remove the protein, then concentrate the sample in a speed vacuum evaporator to dryness. Next, samples were analyzed using the high-resolution gas chromatography method. We used a gas chromatograph GC2010Plus (Shimadzu, Tokyo, Japan) with a capillary column ZEBRON ZB-1 (15 m length, 0.25 mm diameter, and 0.1 μm film thickness, Phenomenex, Torrance, CA, USA). Helium was used as a carrier gas (at a flow rate of 1.18 mL min^−1). […] Finally, scyllo-inositol was quantified by using a standard.
The PK parameters were calculated using PK Solver. PKSolver is an add-in program for pharmacokinetic and pharmacodynamic data analysis […]. […] The area under the drug concentration–time curve from time zero to the time of the last quantifiable concentration (AUClast) was calculated using the trapezoidal rule. The volume over which the drug was distributed (Vd) and clearance (CL) were conducted by PK Solver. […] Nevertheless, we estimated K by log-linear regression analysis on data points on the terminal log-linear phase. Noncompartmental analysis is generally the preferred methodology to use in that it requires fewer assumptions than model-based approaches. We presented the results for individual rats, subgroups of rats, and for all subjects studied. The content of scyllo-inositol was calculated from the standard curves of appropriate components. To determine the terminal phase, […] was sufficient.
An analysis of all parameters was carried out with GraphPad Prism software (Version 10 Graph Pad Software Inc., La Jolla, CA, USA). Data are expressed as means ± SEM or individual data. Briefly, AUClast was calculated using the trapezoidal method. The T0.5 of oral administration was calculated as 0.693/K.

[1] = serum, Mean of rats 1–3 ± SEM, oral 10 mg/kg
[2] = serum, Mean of rats 1–3 ± SEM, serum, oral 10 mg/kg
[3] = serum, Mean of rats 4–6 ± SEM, oral 10 mg/kg
[4] = serum, Mean of rats 4–6 ± SEM, serum, oral 10 mg/kg
[5] = serum, Rat No 1, serum, oral 10 mg/kg
[6] = serum, Rat No 2, serum, oral 10 mg/kg
[7] = serum, Rat No 3, serum, oral 10 mg/kg
[8] = serum, Rat No 4, serum, oral 10 mg/kg
[9] = serum, Rat No 5, serum, oral 10 mg/kg
[10] = serum, Rat No 6, serum, oral 10 mg/kg
[11] = serum, mean serum profile of six rats, oral 3.92 mg SCI (10 mg/kg)
[12] = mean serum profile of six rats, oral 3.92 mg SCI (10 mg/kg)

O[C@H]1[C@H](O)[C@@H](O)[C@H](O)[C@@H](O)[C@@H]1O [SCI, scyllo-inositol]
AUC(0-t) [1]: 36400 ± 3390 ng·h/mL | Cmax [1]: 6730 ± 291 ng/mL | Tmax [1]: 1.33 ± 0.167 h | k el [2]: 0.000237 s⁻¹ | MRT [2]: 36.2 ± 20.7 h | half-life [2]: 25.1 ± 14.3 h | AUC(0-t) [3]: 19800 ± 4260 ng·h/mL | Cmax [3]: 4900 ± 874 ng/mL | Tmax [3]: 2.67 ± 0.667 h | k el [4]: 0.000126 s⁻¹ | MRT [4]: 3.6 ± 1.48 h | half-life [4]: 2.5 ± 1.02 h | AUC(0-t) (serum, Rat No 1, oral 10 mg/kg): 40800 ng·h/mL | Cmax (serum, Rat No 1, oral 10 mg/kg): 7200 ng/mL | Tmax (serum, Rat No 1, oral 10 mg/kg): 1.5 h | k el [5]: 0.0007 s⁻¹ | MRT [5]: 0.397 h | half-life [5]: 0.275 h | AUC(0-t) (serum, Rat No 2, oral 10 mg/kg): 38600 ng·h/mL | Cmax (serum, Rat No 2, oral 10 mg/kg): 6200 ng/mL | Tmax (serum, Rat No 2, oral 10 mg/kg): 1.5 h | k el [6]: 3.85e-06 s⁻¹ | MRT [6]: 72.1 h | half-life [6]: 50 h | AUC(0-t) (serum, Rat No 3, oral 10 mg/kg): 29700 ng·h/mL | Cmax (serum, Rat No 3, oral 10 mg/kg): 6800 ng/mL | Tmax (serum, Rat No 3, oral 10 mg/kg): 1 h | k el [7]: 7.67e-06 s⁻¹ | MRT [7]: 36.3 h | half-life [7]: 25.1 h | AUC(0-t) (serum, Rat No 4, oral 10 mg/kg): 11400 ng·h/mL | Cmax (serum, Rat No 4, oral 10 mg/kg): 3200 ng/mL | Tmax (serum, Rat No 4, oral 10 mg/kg): 2 h | k el [8]: 0.000253 s⁻¹ | MRT [8]: 1.1 h | half-life [8]: 0.761 h | AUC(0-t) (serum, Rat No 5, oral 10 mg/kg): 25300 ng·h/mL | Cmax (serum, Rat No 5, oral 10 mg/kg): 6100 ng/mL | Tmax (serum, Rat No 5, oral 10 mg/kg): 4 h | k el [9]: 4.47e-05 s⁻¹ | MRT [9]: 6.21 h | half-life [9]: 4.31 h | AUC(0-t) (serum, Rat No 6, oral 10 mg/kg): 22600 ng·h/mL | Cmax (serum, Rat No 6, oral 10 mg/kg): 5400 ng/mL | Tmax (serum, Rat No 6, oral 10 mg/kg): 2 h | k el [10]: 7.95e-05 s⁻¹ | MRT [10]: 3.5 h | half-life [10]: 2.42 h | AUC(0-t) [11]: 23500 ng·h/mL | Cmax [11]: 5930 ng/mL | Tmax [11]: ~1.5 h | k el [11]: 1.91e-05 s⁻¹ | MRT [11]: 14.5 h | half-life [11]: 10.1 h | CL [12]: 0.167 L/h | Vd [12]: 2.43 L | Side effects of SCI supplementation noticed during the study (oral 10 mg/kg, up to 48 h): no side effects | Time of highest average serum concentration (rats no. 1–3 (sampled 0–1.5, 12, 24 h), oral 10 mg/kg): 1.5 h | Time of highest average serum concentration (rats no. 4–6 (sampled 2–48 h), oral 10 mg/kg): 2 h | Time of first measurement of SCI concentration greater than 0 mg/L (serum, after oral 10 mg/kg): 30 min
